This is an account of results in US20190142949A1, “COVALENT CONJUGATES” (GLAXOSMITHKLINE INTELLECTUAL PROPERTY DEVELOPMENT LIMITED, priority 2015, published 2019).

For test [1], the target named is T1, Bromodomain BRD4 Binding Domain 1 (BD1) [BRD4 (Y390A)] (Homo sapiens, UniProt O60885, Y390A).
T1 construct: made in house; host or cells: E. coli (pET15b vector)
The experiment in a line: TR-FRET binding assay, Bromodomain BRD4 BD1 mutant assay. Conditions: for IC50: TR-FRET, BRD4 (Y390A) 10 nM, Alexa Fluor647 ligand at Kd, read-out: pIC50 in the BRD4 BD1 assay (converted). As for the experimental part: Binding was assessed using a time resolved fluorescent resonance energy transfer binding assay. This utilises a 6 His purification tag at the N-terminal of the proteins as an epitope for an anti-6 His antibody labeled with Europium chelate (PerkinElmer AD0111) allowing binding of the Europium to the proteins which acts as the donor fluorophore. A small molecule, high affinity binder of the bromodomain BRD4 has been labeled with Alexa Fluor647 (Reference Compound X) and this acts as the acceptor in the FRET pair.
In the absence of a competing compound, excitation of the Europium causes the donor to emit at λ618 nm which excites the Alexa labelled bromodomain binding compound leading to an increased energy transfer that is measurable at λ647 nM. In the presence of a sufficient concentration of a compound that can bind these proteins, the interaction is disrupted leading to a quantifiable drop in fluorescent resonance energy transfer.
The binding of Examples 1 to 11 to Bromodomain BRD4 was assessed using mutated proteins to detect differential binding to Binding Domain 1 (BD1) on the bromodomain. These single residue mutations in the acetyl lysine binding pocket greatly lower the affinity of the fluoroligand (Reference Compound X) for the mutated domain (>1000 fold selective for the non-mutated domain). Therefore in the final assay conditions, binding of the fluoroligand to the mutated domain cannot be detected and subsequently the assay is suitable to determine the binding of compounds to the single non-mutated bromodomain.
Recombinant Human Bromodomain [BRD4 (Y390A)] was expressed in E colicells (pET15b vector) with a 6-His tag at the N-terminal. […]
All assay components were dissolved in buffer composition of 50 mM HEPES pH7.4, 50 mM NaCl, 5% Glycerol, 1 mM DTT and 1 mM CHAPS. […] Plates were then read on the Envision platereader, (λex=317 nm, donor λem=615 nm; acceptor λem=665 nm; Dichroic LANCE dual). Time resolved fluorescent intensity measurements were made at both emission wavelengths and the ratio of acceptor/donor was calculated and used for data analysis. […]

For test [2], the system named is LPS induced MCP-1 production from human whole blood. The experiment in a line: LPS induced MCP-1 production from human whole blood. It counts as cell-based. Conditions: LPS 200 ng/mL, 18-24 hours, read-out: pIC50, LPS induced MCP-1 production (converted). The protocol: Activation of monocytic cells by agonists of toll-like receptors such as bacterial lipopolysaccharide (LPS) results in production of key inflammatory mediators including MCP-1. Such pathways are widely considered to be central to the pathophysiology of a range of auto-immune and inflammatory disorders. Blood is collected in a tube containing Sodium heparin (Leo Pharmaceuticals) (10 units of heparin/mL of blood). 96-well compound plates containing 1 μL test sample in 100% DMSO were prepared (two replicates on account of donor variability). 130 μL of whole blood was dispensed into each well of the 96-well compound plates and incubated for 30 min at 37° C., 5% CO2. 10 μL of lipopolysaccharide (from Salmonella typhosa; L6386) made up in PBS (200 ng/mL final assay concentration) was added to each well of the compound plates. The plates were then placed in the humidified primary cell incubator for 18-24 hours at 37° C., 5% CO2. 140 μL of PBS was added to all wells of the compound plates containing blood. The plates were then sealed and centrifuged for 10 mins at 2500 rpm. […] 150 μL of 2×MSD Read Buffer T (stock 4×MSD Read Buffer T was diluted 50:50 with de-ionised water) was then added to each well and the plates read on the MSD Sector Imager 6000. Concentration response curves for each compound were generated from the data and an IC50 value was calculated.

On to `Cc1cc(-c2nc3cc(CN[C@@H](CC(C)C)C(=O)OC4CCCC4)ccc3n2CC2CCOCC2)c[nH]c1=O` [Example 3, (S)-cyclopentyl 4-methyl-2-(((2-(5-methyl-6-oxo-1,6-dihydropyridin-3-yl)-1-((tetrahydro-2H-pyran-4-yl)methyl)-1H-benzo[d]imidazol-5-yl)methyl)amino)pentanoate], for which the IC50 in test [1] is 794 nM; in test [2], 79.4 nM.

As to `Cc1cc(-c2nc3ccccc3n2CC2CCOCC2)c[nH]c1=O` [Example 10, 3-methyl-5-(1-((tetrahydro-2H-pyran-4-yl)methyl)-1H-benzo[d]imidazol-2-yl)pyridin-2(1H)-one], the IC50 is 398 nM in test [1] and 2510 nM in test [2].

As for `COc1ccc2c(c1)C(c1ccc(Cl)cc1)=N[C@@H](CC(=O)NCCCCCNC(=O)CCCCCC1(C)/C(=C/C=C/C=C/C3=[N+](CCCCS(=O)(=O)O)c4ccc(S(=O)(=O)O)cc4C3(C)C)N(CCCCS(=O)(=O)[O-])c3ccc(S(=O)(=O)O)cc31)c1nnc(C)n1-2` (some centres unmarked) [Reference Compound X, reference compound], in test [1] (single residue mutations in the acetyl lysine binding pocket), the “selectivity of the fluoroligand for the non-mutated domain over the mutated domain” value is recorded as more than 1000 fold.
